From ChEMBL document CHEMBL3627635, “Synthesis and anti-proliferative activity of novel azazerumbone conjugates with chalcones” (Bioorg Med Chem Lett, 2015)
Converted amounts (≈) assume the structure as drawn.

Columns and labels:
Type in all cases: functional, cell-based
[1] = Antiproliferative activity against human Lu cells
HepG2 = assay: Antiproliferative activity against human HepG2 cells
MCF7 = assay: Antiproliferative activity against human MCF7 cells
P338 = assay: Antiproliferative activity against mouse […] cells
SW480 = assay: Antiproliferative activity against human SW480 cells
HeLa = assay: Antiproliferative activity against human HeLa cells

## COc1ccc(/C=C/C(=O)c2ccc(OCCn3cc(CN4C(=O)/C=C/C(C)(C)C/C=C(\C)CC/C=C/4C)nn3)cc2O)cc1
[1]
  IC50: 1.67 mg/L (≈ 2.73 µM)
HepG2
  IC50: 2.06 mg/L (≈ 3.37 µM)
MCF7
  IC50: 2.85 mg/L (≈ 4.67 µM)
P338
  IC50: 1.21 mg/L (≈ 1.98 µM)
SW480
  IC50: 3.24 mg/L (≈ 5.3 µM)

## COc1cccc(/C=C/C(=O)c2ccc(OCCn3cc(CN4C(=O)/C=C/C(C)(C)C/C=C(\C)CC/C=C/4C)nn3)cc2O)c1
[1]
  IC50: 0.61 mg/L (≈ 0.999 µM)
HepG2
  IC50: 1.01 mg/L (≈ 1.65 µM)
MCF7
  IC50: 1.12 mg/L (≈ 1.83 µM)
P338
  IC50: 0.89 mg/L (≈ 1.46 µM)
SW480
  IC50: 0.95 mg/L (≈ 1.56 µM)

## COc1ccccc1/C=C/C(=O)c1ccc(OCCn2cc(CN3C(=O)/C=C/C(C)(C)C/C=C(\C)CC/C=C/3C)nn2)cc1O
[1]
  IC50: 2.4 mg/L (≈ 3.93 µM)
HepG2
  IC50: 1.71 mg/L (≈ 2.8 µM)
MCF7
  IC50: 1.17 mg/L (≈ 1.92 µM)
P338
  IC50: 1.1 mg/L (≈ 1.8 µM)
SW480
  IC50: 0.9 mg/L (≈ 1.47 µM)

## COc1cc(/C=C/C(=O)c2ccc(OCCn3cc(CN4C(=O)/C=C/C(C)(C)C/C=C(\C)CC/C=C/4C)nn3)cc2O)cc(OC)c1OC
[1]
  IC50: 1.28 mg/L (≈ 1.91 µM)
HepG2
  IC50: 1.44 mg/L (≈ 2.15 µM)
MCF7
  IC50: 2.78 mg/L (≈ 4.14 µM)
P338
  IC50: 0.89 mg/L (≈ 1.33 µM)
SW480
  IC50: 2.61 mg/L (≈ 3.89 µM)

## C/C1=C\CC(C)(C)/C=C/C(=O)N(Cc2cn(CCOc3ccc(C(=O)/C=C/c4ccc(C)cc4)c(O)c3)nn2)/C(C)=C/CC1
[1]
  IC50: 0.91 mg/L (≈ 1.53 µM)
HepG2
  IC50: 0.87 mg/L (≈ 1.46 µM)
MCF7
  IC50: 1.21 mg/L (≈ 2.03 µM)
P338
  IC50: 0.92 mg/L (≈ 1.55 µM)
SW480
  IC50: 1.16 mg/L (≈ 1.95 µM)

## COc1ccc(/C=C/C(=O)c2ccc(OCCn3cc(CN4C(=O)/C=C/C(C)(C)C/C=C(\C)CC/C=C/4C)nn3)cc2O)cc1OCCCN1CCOCC1
[1]
  IC50: 1.56 mg/L (≈ 2.07 µM)
HepG2
  IC50: 1.59 mg/L (≈ 2.11 µM)
MCF7
  IC50: 1.13 mg/L (≈ 1.5 µM)
P338
  IC50: 0.96 mg/L (≈ 1.27 µM)
SW480
  IC50: 0.91 mg/L (≈ 1.21 µM)

## C/C1=C\CC(C)(C)/C=C/C(=O)N(Cc2cn(CCOc3ccc(C(=O)/C=C/c4ccc(C(C)C)cc4)c(O)c3)nn2)/C(C)=C/CC1
[1]
  IC50: 0.77 mg/L (≈ 1.24 µM)
HepG2
  IC50: 0.84 mg/L (≈ 1.35 µM)
MCF7
  IC50: 0.93 mg/L (≈ 1.49 µM)
P338
  IC50: 1.39 mg/L (≈ 2.23 µM)
SW480
  IC50: 0.85 mg/L (≈ 1.36 µM)

## COc1ccc(/C=C/C(=O)c2ccc(OCCCN3C(=O)/C=C/C(C)(C)C/C=C(\C)CC/C=C/3C)cc2)cc1
[1]
  IC50: 2.56 mg/L (≈ 4.85 µM)
HepG2
  IC50: 1.73 mg/L (≈ 3.28 µM)
MCF7
  IC50: 3.17 mg/L (≈ 6.01 µM)
P338
  IC50: 1.3 mg/L (≈ 2.46 µM)
SW480
  IC50: 2.92 mg/L (≈ 5.53 µM)

## COc1cccc(/C=C/C(=O)c2ccc(OCCCN3C(=O)/C=C/C(C)(C)C/C=C(\C)CC/C=C/3C)cc2)c1
[1]
  IC50: 1.06 mg/L (≈ 2.01 µM)
HepG2
  IC50: 1.38 mg/L (≈ 2.62 µM)
MCF7
  IC50: 1.37 mg/L (≈ 2.6 µM)
P338
  IC50: 1.1 mg/L (≈ 2.08 µM)
SW480
  IC50: 1.34 mg/L (≈ 2.54 µM)

## COc1ccccc1/C=C/C(=O)c1ccc(OCCCN2C(=O)/C=C/C(C)(C)C/C=C(\C)CC/C=C/2C)cc1
[1]
  IC50: 2.82 mg/L (≈ 5.34 µM)
HepG2
  IC50: 1.44 mg/L (≈ 2.73 µM)
MCF7
  IC50: 1.56 mg/L (≈ 2.96 µM)
P338
  IC50: 0.83 mg/L (≈ 1.57 µM)
SW480
  IC50: 1.33 mg/L (≈ 2.52 µM)

## COc1cc(/C=C/C(=O)c2ccc(OCCCN3C(=O)/C=C/C(C)(C)C/C=C(\C)CC/C=C/3C)cc2)cc(OC)c1OC
[1]
  IC50: 1.01 mg/L (≈ 1.72 µM)
HepG2
  IC50: 0.99 mg/L (≈ 1.68 µM)
MCF7
  IC50: 0.58 mg/L (≈ 0.987 µM)
P338
  IC50: 0.77 mg/L (≈ 1.31 µM)
SW480
  IC50: 0.71 mg/L (≈ 1.21 µM)

## C/C1=C\CC(C)(C)/C=C/C(=O)N(CCCOc2ccc(C(=O)/C=C/c3ccc(C)cc3)cc2)/C(C)=C/CC1
[1]
  IC50: 1.18 mg/L (≈ 2.31 µM)
HepG2
  IC50: 1.53 mg/L (≈ 2.99 µM)
MCF7
  IC50: 1.21 mg/L (≈ 2.36 µM)
P338
  IC50: 1.29 mg/L (≈ 2.52 µM)
SW480
  IC50: 1.57 mg/L (≈ 3.07 µM)

## COc1ccc(/C=C/C(=O)c2ccc(OCCCN3C(=O)/C=C/C(C)(C)C/C=C(\C)CC/C=C/3C)cc2)cc1OCCCN1CCOCC1
[1]
  IC50: 1.22 mg/L (≈ 1.82 µM)
HepG2
  IC50: 1.53 mg/L (≈ 2.28 µM)
MCF7
  IC50: 1.07 mg/L (≈ 1.59 µM)
P338
  IC50: 1.08 mg/L (≈ 1.61 µM)
SW480
  IC50: 0.8 mg/L (≈ 1.19 µM)

## C/C1=C\CC(C)(C)/C=C/C(=O)N/C(C)=C/CC1
[1]
  IC50: 17.8 mg/L (≈ 76.4 µM)
HepG2
  IC50: 34.6 mg/L (≈ 148 µM)
MCF7
  IC50: 15.6 mg/L (≈ 67 µM)
P338
  IC50: 6.25 mg/L (≈ 26.8 µM)
SW480
  IC50: 6.83 mg/L (≈ 29.3 µM)

## Cc1c2ccncc2c(C)c2c1[nH]c1ccccc12 [ELLIPTECINE]
[1]
  IC50: 0.63 mg/L (≈ 2.56 µM)
HepG2
  IC50: 0.36 mg/L (≈ 1.46 µM)
MCF7
  IC50: 0.44 mg/L (≈ 1.79 µM)
P338
  IC50: 0.44 mg/L (≈ 1.79 µM)
SW480
  IC50: 0.38 mg/L (≈ 1.54 µM)

## C/C1=C\CC(C)(C)/C=C/C(=O)/C(C)=C/CC1 [ZERUMBONE]
[1]
  IC50: 6.05 mg/L (≈ 27.7 µM)
HepG2
  IC50: 13.3 mg/L (≈ 61.1 µM)
MCF7
  IC50: 9.67 mg/L (≈ 44.3 µM)
P338
  IC50: 2.63 mg/L (≈ 12 µM)
SW480
  IC50: 3.15 mg/L (≈ 14.4 µM)
HeLa
  IC50: 2.5 mg/L (≈ 11.5 µM)
